Data reported in publication PMC9127117, “Towards discovery of inhibitors of the undecaprenyl-pyrophosphate phosphatase BacA by virtual high-throughput screening” (Computational and Structural Biotechnology Journal, 2022).
“Also recorded” adds a separate entry of the source.

How the values were obtained:
[1] = system: S. pneumoniae R6; experiment: Double-disc diffusion test with bacitracin; type: cell-based
Description: To evaluate the antibacterial activity of the compounds per se or in combination with bacitracin, against S. aureus RN4220 and S. pneumoniae R6 strains, disc diffusion method was used according to the CLSI guidelines. Bacterial suspensions equivalent to 10^8 CFU/ml were prepared in 5 ml BHI broth. A BHI-agar plate (for S. aureus) or Colombia-agar plate supplemented with 5% Horse Blood (for S. pneumoniae) were then flooded with a bacterial suspension for 1 min to allow the bacteria to sediment before removing the excess of medium. The commercial discs loaded with 130 µg of bacitracin (Biorad) was positioned on top of the bacterial lawn at distances of 10 mm (center to center) from another sterile and blank disc, which was then loaded with 7 µL of a compound solution (50 µg). The plates were incubated at 37 °C for 24 h and the diameter of the growth inhibition zone was measured and a photo of the plates was acquired using a ChemiDoc™ MP System.
Figure S3. Test of antibacterial activity of BacA inhibitors against S. aureus RN4220 (A) and S. pneumonia R6 (B) strains. Bacitracin (130 µg)- and compound (50 µg)-loaded discs were positioned at 10 mm of distance on top of a bacterial lawn. The plates were incubated overnight at 37 °C. These images are representative of three independent tests. […]

[2] = target: BacA (Escherichia coli, UniProt P60932); settings: for IC50 / BacA RA (%): 50 µM C55-PP, 5 nM BacA; for IC50: average of at least three experiments; for BacA RA (%): residual activity in the presence of 100 µM compound, 10 min 37 °C
Description: C43(DE3) cells carrying pTrcBac30 plasmid were used for the expression of N-terminally His6-tagged BacA (His6-BacA) protein from E. coli. Cells were grown in 2YT-ampicillin at 37 °C and when the OD600 reached 0.9, the temperature of the culture was decreased to 22 °C and protein expression was induced by addition of 1 mM IPTG. Incubation was continued overnight at 22 °C and bacteria were harvested in the cold and washed in a buffer containing 20 mM Tris-HCl, pH 7.4, 0.4 M NaCl, 10% glycerol and 10 mM β-mercaptoethanol (buffer A). The cells were disrupted by three successive passages through a French press and the suspension was centrifuged at 200,000× g, 4 °C for 45 min. The pellet of membranes was washed with buffer A. The membranes were resuspended in buffer A supplemented by 2% DDM detergent. This mixture was incubated for 2 h at 4 °C under agitation before being centrifuged as described above. The supernatant containing solubilised membrane proteins was used for the purification of His6-BacA on Ni^2+-NTA-agarose. The supernatant was incubated overnight at 4 °C under agitation with 2 ml of Ni^2+-NTA-agarose polymer pre-equilibrated with buffer A supplemented with 10 mM imidazole and 0.2% DDM. The mixture was then transferred into a Poly-prep chromatography column (Biorad) and the polymer was washed with 50 ml of buffer A containing 0.2% DDM and successively 10 and 30 mM imidazole. The elution of BacA was then performed with buffer A containing 0.2% DDM and 400 mM imidazole. Fractions containing the BacA protein were subjected to an additional gel-filtration purification step on Superdex 200 (HiLoadTM 16/600 SuperdexTM 200) equilibrated in 0.1% DDM-containing buffer A. 1-ml fractions were collected and analysed by SDS-PAGE. Pure fractions were pooled and concentrated to 1 mg/ml (50000 MWCO concentrator, Vivaspin™ 20). […] PgpB was purified as previously described.
The C55-PP phosphatase activity of BacA was assessed by measuring the percentage of transformation of [^14C]C55-PP into [^14C]C55-P upon incubation with BacA by TLC analysis. The butanol from the [^14C]C55-PP solution was dried under vacuum so as to evaporate the organic solvent and to recover C55-PP as a lipidic film. […] The compounds (1 µL) were added to the reaction mixture at 100 µM final concentration (at the first instance) from a 2 mM stock solution prepared in DMSO. A blank experiment without compound, but with 1 µL DMSO, was performed in order to determine the 100 % of BacA activity to which all other experiments were compared. BacA (2 µL) was then added at a final concentration of 5 nM from a dilution solution prepared in the reaction buffer. The concentration of enzyme was fixed so that the consumption of substrate at the end of the incubation time in the control was less than 30%. The reaction mixture was incubated for 10 min at 37 °C and the catalysis was stopped by freezing in liquid nitrogen. The radiolabelled substrate (C55-PP) and product (C55-P) were separated by TLC on pre-coated plates of silica gel 60 (Merck) using propanol/ammonium hydroxide/water (6:3:1, v/v/v) as a mobile phase. The radioactive spots were located and quantified with a radioactivity scanner. […] Dose-response curves were plotted as BacA residual activity (RA) versus the logarithms of inhibitor concentration. […] Reported values are the average of at least three experiments. The C55-PP phosphatase activity of PgpB was measured as described for BacA.
The activity of BacA was then investigated by monitoring the initial velocity of [^14C]C55-PP dephosphorylation, as described in Material and methods section. […] The compounds were prepared as 2 mM DMSO stock solutions, resulting in a 5 % final concentration of DMSO in the reaction mixture.

[3] = system: BWbacA-singleΔtolC strain; experiment: Growth inhibition / MIC in 2YT liquid medium; type: cell-based, E. coli; settings: for MIC: BWbacA-singleΔtolC strain; for class of antibacterial activity (Figure S2): BWΔtolC and BWbacA-singleΔtolC strains, 250 and 500 µM; for growth inhibition: TolC/PAP2-depleted BWbacA-singleΔtolC, 500 µM compound
Description: (§1) Bacteria were grown in 2YT broth supplemented, when required, with ampicillin or kanamycin at concentrations of 100 and 50 µg/ml, respectively. The BWΔtolC strain was obtained from the Keio collection. The BWΔbacAΔtolC and BWbacA-singleΔtolC were generated by P1 transduction of the ΔtolC::Kan^R cassette from BWΔtolC strain to BWΔbacA and DMEG9 recipient strains, respectively. The strains S. aureus RN4220 and S. pneumoniae R6 were used to evaluate the antibacterial activity of certain compounds. S. aureus was grown on BHI (Brain Heart Infusion) broth and S. pneumoniae was grown on Colombia broth supplemented with 5% horse blood.
(§2) For compounds displaying inhibitory activity on BacA catalysis, their antibacterial activity was tested on different E. coli strains by monitoring bacterial growth in the presence of compounds (125, 250 and 500 µM). One colony was cultured in 10 ml of 2YT liquid medium and incubated at 37℃ for 6 h. The absorbance of the culture at 600 nm (A600) was measured to prepare a bacterial suspension in 2YT liquid medium at 15.10^6 CFU/ml (A600 = 1 corresponds to 3.10^8 CFU/ml). The bacterial suspension (200-µl) was then grown on 96-well plates in the presence or not of compounds (5-µl), which was added from a stock solution prepared in DMSO. Negative controls were then performed by growing the cells without inhibitors in 2YT medium and in 2YT medium supplemented with 2.5% of DMSO. The plates were incubated at 37℃ overnight with A600 measurements every 10 min using a Tecan F200 PRO microplate reader (iControl software).

[4] = system: BWΔtolC strain; experiment: Growth inhibition in 2YT liquid medium (off-target activity); type: cell-based, E. coli; settings: for growth inhibition: TolC-depleted BWΔtolC; for Off-target activity: antibacterial activity against BWΔtolC
Description: as §1, §2

[5] = target: T1, PgpB (Escherichia coli, UniProt P0A924); experiment: C55-PP phosphatase assay of PgpB; type: biochemical, E. coli; settings: 100 µM compound; data not shown
T1 construct: made in house
Description: C43(DE3) cells carrying pTrcBac30 plasmid were used for the expression of N-terminally His6-tagged BacA (His6-BacA) protein from E. coli. Cells were grown in 2YT-ampicillin at 37 °C and when the OD600 reached 0.9, the temperature of the culture was decreased to 22 °C and protein expression was induced by addition of 1 mM IPTG. Incubation was continued overnight at 22 °C and bacteria were harvested in the cold and washed in a buffer containing 20 mM Tris-HCl, pH 7.4, 0.4 M NaCl, 10% glycerol and 10 mM β-mercaptoethanol (buffer A). The cells were disrupted by three successive passages through a French press and the suspension was centrifuged at 200,000× g, 4 °C for 45 min. The pellet of membranes was washed with buffer A. The membranes were resuspended in buffer A supplemented by 2% DDM detergent. […] Fractions containing the BacA protein were subjected to an additional gel-filtration purification step on Superdex 200 (HiLoadTM 16/600 SuperdexTM 200) equilibrated in 0.1% DDM-containing buffer A. 1-ml fractions were collected and analysed by SDS-PAGE. […]
The C55-PP phosphatase activity of BacA was assessed by measuring the percentage of transformation of [^14C]C55-PP into [^14C]C55-P upon incubation with BacA by TLC analysis. […] The radioactive spots were located and quantified with a radioactivity scanner. […] The C55-PP phosphatase activity of PgpB was measured as described for BacA.

[6] = system: BWbacA-singleΔtolC strain carrying the empty vector (pTRCH30); experiment: Growth inhibition, control strain carrying the empty vector; type: cell-based, E. coli; settings: 500 µM compound
Description: as §2
(§3) To further assess the specificity of compounds 3 and 5 with respect to BacA, they were tested against the strain depleted of both TolC and PAP2 but overexpressing an ectopic copy of the bacA gene on a plasmid.

[7] = system: BWbacA-singleΔtolC strain overexpressing an ectopic copy of the bacA gene on a plasmid; experiment: Growth inhibition upon bacA overexpression; type: cell-based, E. coli; settings: bacA overexpressed in trans; 500 µM compound
Description: as §2, §3

[8] = system: BWΔbacAΔtolC strain; experiment: Growth inhibition in 2YT liquid medium; type: cell-based, E. coli; settings: BacA and TolC depleted; 500 µM compound
Description: as §1
For compounds displaying inhibitory activity on BacA catalysis, their antibacterial activity was tested on different E. coli strains by monitoring bacterial growth in the presence of compounds (125, 250 and 500 µM). One colony was cultured in 10 ml of 2YT liquid medium and incubated at 37℃ for 6 h. The absorbance of the culture at 600 nm (A600) was measured to prepare a bacterial suspension in 2YT liquid medium at 15.10^6 CFU/ml (A600 = 1 corresponds to 3.10^8 CFU/ml). […] The plates were incubated at 37℃ overnight with A600 measurements every 10 min using a Tecan F200 PRO microplate reader (iControl software). […]

[9] = system: DMEG9 strain, alias BWbacA-single; experiment: Growth inhibition in 2YT liquid medium; type: cell-based, E. coli; settings: PAP2-depleted DMEG9; 500 µM compound
Description: as §2
(§4) Two compounds, 3 and 5, were assessed for antibacterial activity using the broth microdilution method against the E. coli BW25113 wild type strain. […] Considering the plurality of C55-PP phosphatases in E. coli, the inhibition of BacA may not induce growth inhibition as long as the PAP2 enzymes (PgpB, YbjG, and LpxT) are functional. Consequently, compounds 3 and 5 were tested against a BW25113 variant in which the PAP2 enzymes were depleted (DMEG9 strain, alias BWbacA-single). […]

[10] = system: E. coli BW25113 wild type strain; experiment: Growth inhibition in 2YT liquid medium; type: cell-based; settings: 500 µM compound
Description: as §2, §4

BacA, sequence (P60932 whole entry): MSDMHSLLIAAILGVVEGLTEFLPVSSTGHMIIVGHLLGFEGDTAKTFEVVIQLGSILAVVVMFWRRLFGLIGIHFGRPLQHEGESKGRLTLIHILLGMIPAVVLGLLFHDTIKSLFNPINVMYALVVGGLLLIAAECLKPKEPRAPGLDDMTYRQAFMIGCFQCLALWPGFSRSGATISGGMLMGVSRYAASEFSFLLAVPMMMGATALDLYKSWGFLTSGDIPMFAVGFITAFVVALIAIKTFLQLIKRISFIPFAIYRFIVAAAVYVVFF
T1 sequence (P0A924 whole entry): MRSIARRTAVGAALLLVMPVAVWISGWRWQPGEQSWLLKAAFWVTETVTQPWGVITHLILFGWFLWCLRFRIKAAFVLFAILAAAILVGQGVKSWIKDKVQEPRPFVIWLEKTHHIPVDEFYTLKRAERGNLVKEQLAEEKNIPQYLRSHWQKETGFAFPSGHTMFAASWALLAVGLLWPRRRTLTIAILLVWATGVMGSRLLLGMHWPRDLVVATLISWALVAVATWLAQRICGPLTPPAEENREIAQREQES

Compound | IC50 [2] [µM] | BacA RA (%) [2] [%] | MIC [3] [µg/mL] | MIC ([3]; 125, 250 and 500 µM tested) [µM] | class of antibacterial activity (Figure S2) [3] | growth inhibition [3] | growth inhibition ([4]; 500 µM compound) | Off-target activity [4] | other results
bacitracin [reference compound] | – | – | – | – | – | – | – | – | inhibition zone of bacitracin ([1]; 130 µg bacitracin disc alone): 7.5 mm
Cc1ccc(NS(=O)(=O)c2cc(C(=O)O)cs2)cc1C [Compound 2] | 132 ± 22 | 66± 17 | 155 | 500 | strong specificity towards BacA | total growth inhibition | no effect | No | nature of the inhibition (compound versus substrate competition kinetics) ([2]; 25 to 300 µM substrate, 200 µM compound): non-competitive inhibitors
O=C(O)c1csc(S(=O)(=O)Nc2ccc3ccccc3c2)c1 [Compound 6] | 151 ± 13 | 70 ± 18 | 83 | 250 | antibacterial activity on both strains | total growth inhibition | moderate inhibition | Yes | growth inhibition ([4]; 250 µM compound): no effect
O=C(O)c1csc(S(=O)(=O)Nc2ccc(SCc3cccnc3)cc2)c1 [Compound 1, 5-{p-[(3-pyridyl)methylthio]phenylaminosulfonyl}-3-thenoic acid] | – | – | – | – | without any antibacterial activity whatever the strain | – | no growth inhibition | No | MIC ([3]; Escherichia coli, 125, 250 and 500 µM tested): > 500 µM; MIC ([3]; Escherichia coli, class symbol ND): > 500 µM
O=C(O)c1csc(S(=O)(=O)Nc2ccc(N3CCCC3)c(F)c2)c1 [Compound 4] | – | – | 92 | 250 | antibacterial activity on both strains | total growth inhibition | moderate inhibition | Yes | antibacterial activity per se (inhibition zone around compound-loaded disc) ([1]; 50 µg compound disc): no inhibition zone; inhibition zone of bacitracin in proximity of the compound ([1]; 130 µg bacitracin disc, 50 µg compound disc at 10 mm): 10 mm; inhibition of PgpB [5]: not inhibited; growth inhibition ([4]; 250 µM compound): no effect
O=C(O)c1csc(S(=O)(=O)Nc2ccc3[nH]c(=O)sc3c2)c1 [Compound 5] | 338 ± 35 | 76 ± 13 | – | > 500 | without any antibacterial activity whatever the strain | no growth inhibition | did not lead to any growth inhibition; also recorded: no growth inhibition | No | growth inhibition [6]: did not display any antibacterial activity; growth inhibition upon bacA overexpression [7]: did not display any antibacterial activity; growth inhibition (BacA-independent activity) [8]: did not display any antibacterial activity; MIC ([3]; class symbol ND): ND (no growth inhibition detected up to 500 µM compound); growth inhibition [9]: no growth inhibition; growth inhibition [10]: No growth inhibition
CC(C)Oc1ccc(NS(=O)(=O)c2cc(C(=O)O)cs2)cc1 [Compound 7] | 366 ± 73 | 80 ±10 | 170 | 500 | strong specificity towards BacA | total growth inhibition | no effect | No | –
